# Assay results from patent US8383618B2, “C2-fluoro substituted piperazine linked pyrrolo[2,1-C][1,4] benzodiazepine dimers and a process for the preparation thereof” (Council of Scientific & Industrial Research, priority 2008, dated 2013).
# Experiments:
# calf thymus (CT) DNA = assay: Thermal denaturation studies; type: binding; conditions: [PBD]:[DNA] molar ratio 1:5; CT-DNA 100 μM, ligand 20 μM; sodium phosphate buffer pH 7.00
# Procedure: The DNA binding affinity of the C2-Fluoro substituted piperazine linked pyrrolo[2,1c][1,4]benzodiazepine dimers were subjected to thermal denaturation studies using calf thymus (CT) DNA (Jones, G. B.; Davey, C. L.; Jenkins, T. C.; Kamal, A.; Kneale, G. G.; Neidle, S.; Webster, G. D.; Thurston, D. E. Anti-cancer Drug Des. 1990, 5, 249. McConnaughie, A. W.; Jenkins, T. C. J. Med. Chem. 1995, 38, 3488). The studies for these compounds (IXa-f) were carried out by DNA/ligand molar ratio is 1:5 the increase in the helix melting temperature (ΔTm) for each compound was examined at 0 h. […] Data for DSB-120 and SJG-136 are included in Table-3 for comparison. The synthetic DC-81 dimer (DSB-120) gives a ΔTm 10.2° C. and SJC-136 gives a […]Tm of 25° C. under identical experimental condition.
# [1] = system: sixty human tumor cells derived from nine cancer types; assay: NCI in vitro anticancer screen (SRB), whole panel; type: cell-based
# Procedure: (§1) The above compounds were evaluated for in vitro anticancer activity against sixty human tumor cells derived from nine cancer types (leukemia, non small cell cancer, colon cancer CNS cancer, melanoma, ovarian cancer renal cancer, prostate cancer and breast cancer) as per NCI protocol. For each compound, dose response curves for each cell line were measured at a minimum of five concentrations at 10-fold dilution. A protocol of 48 h continuous drug exposure was used, and a sulforhodamine B (SRB) protein assay was used to estimate cell viability or growth. The concentration causing 50% cell growth inhibition (GI50), total cell growth inhibition (TGI, 0% growth) and 50% cell death (LC-50% growth) compared with the control was calculated.
# SK-MEL-28 = assay: NCI in vitro anticancer screen (SRB); type: cell-based, human; conditions: Melanoma, 48 h exposure
# Procedure: as §1
# SK-OV-3 = assay: NCI in vitro anticancer screen (SRB); type: cell-based, human; conditions: Ovarian, 48 h exposure
# Procedure: as §1
# UACC-62 = assay: NCI in vitro anticancer screen (SRB); type: cell-based, human; conditions: Melanoma, 48 h exposure
# Procedure: as §1
# COLO 205 = assay: NCI in vitro anticancer screen (SRB); type: cell-based, human; conditions: Colon, 48 h exposure
# Procedure: as §1
# OVCAR-3 = assay: NCI in vitro anticancer screen (SRB); type: cell-based, human; conditions: Ovarian, 48 h exposure
# Procedure: as §1
# 786-0 = assay: NCI in vitro anticancer screen (SRB); type: cell-based, human; conditions: Renal, 48 h exposure
# Procedure: as §1
# BT-549 = assay: NCI in vitro anticancer screen (SRB); type: cell-based, human; conditions: Breast, 48 h exposure
# Procedure: as §1
# PC-3 = assay: NCI in vitro anticancer screen (SRB); type: cell-based, human; conditions: Prostate, 48 h exposure
# Procedure: as §1
# HS 578T = assay: NCI in vitro anticancer screen (SRB); type: cell-based, human; conditions: Breast, 48 h exposure
# Procedure: as §1
# T-47D = assay: NCI in vitro anticancer screen (SRB); type: cell-based, human; conditions: Breast, 48 h exposure
# Procedure: as §1
# SK-MEL-2 = assay: NCI in vitro anticancer screen (SRB); type: cell-based, human; conditions: Melanoma, 48 h exposure
# Procedure: as §1
# SF-539 = assay: NCI in vitro anticancer screen (SRB); type: cell-based, human; conditions: CNS, 48 h exposure
# Procedure: as §1
# SF-268 = assay: NCI in vitro anticancer screen (SRB); type: cell-based, human; conditions: CNS, 48 h exposure
# Procedure: as §1
# NCI-H23 = assay: NCI in vitro anticancer screen (SRB); type: cell-based, human; conditions: Non-small cell lung, 48 h exposure
# Procedure: as §1
# LOX IMVI = assay: NCI in vitro anticancer screen (SRB); type: cell-based, human; conditions: Melanoma, 48 h exposure
# Procedure: as §1
# MCF7 = assay: NCI in vitro anticancer screen (SRB); type: cell-based, human; conditions: Breast, 48 h exposure
# Procedure: as §1
# MDA-MB-468 = assay: NCI in vitro anticancer screen (SRB); type: cell-based, human; conditions: Breast, 48 h exposure
# Procedure: as §1
# IGROV1 = assay: NCI in vitro anticancer screen (SRB); type: cell-based, human; conditions: Ovarian, 48 h exposure
# Procedure: as §1
# HOP-62 = assay: NCI in vitro anticancer screen (SRB); type: cell-based, human; conditions: Non-small cell lung, 48 h exposure
# Procedure: as §1
# NCI-H522 = assay: NCI in vitro anticancer screen (SRB); type: cell-based, human; conditions: Non-small cell lung, 48 h exposure
# Procedure: as §1
# SN12C = assay: NCI in vitro anticancer screen (SRB); type: cell-based, human; conditions: Renal, 48 h exposure
# Procedure: as §1
# SW-620 = assay: NCI in vitro anticancer screen (SRB); type: cell-based, human; conditions: Colon, 48 h exposure
# Procedure: as §1
# CAKI-1 = assay: NCI in vitro anticancer screen (SRB); type: cell-based, human; conditions: Renal, 48 h exposure
# Procedure: as §1
# A498 = assay: NCI in vitro anticancer screen (SRB); type: cell-based, human; conditions: Renal, 48 h exposure
# Procedure: as §1
# HL-60(TB) = assay: NCI in vitro anticancer screen (SRB); type: cell-based, human; conditions: Leukemia, 48 h exposure
# Procedure: as §1
# HOP-92 = assay: NCI in vitro anticancer screen (SRB); type: cell-based, human; conditions: Non-small cell lung, 48 h exposure
# Procedure: as §1
# HCT-116 = assay: NCI in vitro anticancer screen (SRB); type: cell-based, human; conditions: Colon, 48 h exposure
# Procedure: as §1
# RPMI-8226 = assay: NCI in vitro anticancer screen (SRB); type: cell-based, human; conditions: Leukemia, 48 h exposure
# Procedure: as §1
# DU-145 = assay: NCI in vitro anticancer screen (SRB); type: cell-based, human; conditions: Prostate, 48 h exposure
# Procedure: as §1
# SR = assay: NCI in vitro anticancer screen (SRB); type: cell-based, human; conditions: Leukemia, 48 h exposure
# Procedure: as §1
# SK-MEL-5 = assay: NCI in vitro anticancer screen (SRB); type: cell-based, human; conditions: Melanoma, 48 h exposure
# Procedure: as §1
# SNB-75 = assay: NCI in vitro anticancer screen (SRB); type: cell-based, human; conditions: CNS, 48 h exposure
# Procedure: as §1
# MOLT-4 = assay: NCI in vitro anticancer screen (SRB); type: cell-based, human; conditions: Leukemia, 48 h exposure
# Procedure: as §1
# NCI-H460 = assay: NCI in vitro anticancer screen (SRB); type: cell-based, human; conditions: Non-small cell lung, 48 h exposure
# Procedure: as §1
# M14 = assay: NCI in vitro anticancer screen (SRB); type: cell-based, human; conditions: Melanoma, 48 h exposure
# Procedure: as §1
# CCRF-CEM = assay: NCI in vitro anticancer screen (SRB); type: cell-based, human; conditions: Leukemia, 48 h exposure
# Procedure: as §1
# K-562 = assay: NCI in vitro anticancer screen (SRB); type: cell-based, human; conditions: Leukemia, 48 h exposure
# Procedure: as §1
# U251 = assay: NCI in vitro anticancer screen (SRB); type: cell-based, human; conditions: CNS, 48 h exposure
# Procedure: as §1
# SNB-19 = assay: NCI in vitro anticancer screen (SRB); type: cell-based, human; conditions: CNS, 48 h exposure
# Procedure: as §1
# MALME-3M = assay: NCI in vitro anticancer screen (SRB); type: cell-based, human; conditions: Melanoma, 48 h exposure
# Procedure: as §1
# MDA-MB-435 = assay: NCI in vitro anticancer screen (SRB); type: cell-based, human; conditions: Breast, 48 h exposure
# Procedure: as §1
# [2] = human tumor cell lines, 48 h drug exposure, SRB
smiles,measurement,setting,value
"COc1cc2c(cc1OCCCN1CCN(CCCOc3cc4c(cc3OC)C(=O)N3CC(F)C[C@H]3C=N4)CC1)N=C[C@@H]1CC(F)CN1C2=O (stereo partly drawn) [Compound IXa, 1,1′-{[(bispropane-1,N-diyl)piperazine]dioxy}bis[(11aS)-2-fluoro-7-methoxy-1,2,3,11a-tetrahydro-5H-pyrrolo[2,1-c][1,4]benzodiazepine-5-one]]",ΔTm after incubation at 37° C. for 0 h,calf thymus (CT) DNA,37.0 °C
same,GI50,[1]; against fifty nine cell lines in nine cell panels,< 95 nM
same,Log10 GI50 mean graph midpoint (MG_MID),[1]; [2],−7.28
same,Log10 LC50 mean graph midpoint (MG_MID),[1]; [2],−4.65
same,Log10 TGI mean graph midpoint (MG_MID),[1]; [2],−6.12
same,GI50,SK-MEL-28,31 nM
same,GI50,SK-MEL-28; listed as IX a,43 nM
same,GI50,SK-OV-3,70 nM
same,GI50,UACC-62,26 nM
same,GI50,COLO 205,40 nM
same,GI50,OVCAR-3,48 nM
same,GI50,786-0,39 nM
same,GI50,BT-549,95 nM
same,GI50,PC-3,15 nM
same,GI50,HS 578T,48 nM
same,GI50,T-47D,13 nM
same,GI50,SK-MEL-2,43 nM
same,GI50,SF-539,11 nM
same,GI50,SF-268,11 nM
same,GI50,NCI-H23,32 nM
same,GI50,LOX IMVI,17 nM
same,GI50,MCF7,10 nM
same,GI50,MDA-MB-468,10 nM
same,GI50,IGROV1,59 nM
same,GI50,HOP-62,12 nM
same,GI50,NCI-H522,10 nM
same,GI50,SN12C,18 nM
same,GI50,SW-620,56 nM
same,GI50,CAKI-1,28 nM
same,GI50,A498,66 nM
same,GI50,HL-60(TB),10 nM
same,GI50,HOP-92,96 nM
same,GI50,HCT-116,28 nM
same,GI50,RPMI-8226,22 nM
same,GI50,DU-145,47 nM
same,GI50,SR,10 nM
same,GI50,SK-MEL-5,31 nM
same,GI50,SNB-75,33 nM
same,GI50,MOLT-4,10 nM
same,GI50,NCI-H460,10 nM
same,GI50,M14,35 nM
same,GI50,CCRF-CEM,10 nM
same,GI50,K-562,15 nM
same,GI50,U251,15 nM
same,GI50,SNB-19,28 nM
same,GI50,MALME-3M,24 nM
same,GI50,MDA-MB-435,34 nM
